# Assay results as given in patent US11731946B2, “Broad spectrum antivirulence, anti-persistence compounds” (priority 2017, dated 2023).
# Several values for one entry are separate records, joined by “and”; a condition that tells them apart may be missing. Equal entries are not always repeated.
# Legend:
# [1] = test system: MvfR regulon; assay: Quantification of pyocyanin (OD520nm of chloroform-extracted cultures); type: cell-based, P. aeruginosa; settings: Pseudomonas aeruginosa
# [2] = test system: MvfR regulon; assay: LC/MS quantification of HAQs and related molecules in bacterial culture supernatants; type: cell-based, P. aeruginosa; settings: for IC50 / activity at 50 µM: Pseudomonas aeruginosa
# [3] = target: T1, MvfR (Pseudomonas aeruginosa, UniProt Q9I4X0); assay: Surface plasmon resonance (SPR) binding to purified MvfR co-inducer binding domain; parameters: species or system P. aeruginosa
# T1 construct: made in house
# T1 sequence (Q9I4X0 91-332): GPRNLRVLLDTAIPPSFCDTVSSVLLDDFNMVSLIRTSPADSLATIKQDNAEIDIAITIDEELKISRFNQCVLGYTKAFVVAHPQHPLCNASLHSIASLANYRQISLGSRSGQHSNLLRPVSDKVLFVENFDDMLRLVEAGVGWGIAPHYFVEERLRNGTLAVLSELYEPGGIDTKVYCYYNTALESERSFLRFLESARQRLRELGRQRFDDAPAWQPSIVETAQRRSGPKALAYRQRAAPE
# In short: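 The recombinant His-purified MvfR co-inducer binding domain was amine-coupled to the sensor chip at a target level of 5000 RU. Compound binding measured by SPR; KD taken from steady-state analysis.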
# [4] = test system: PA14; assay: Antibiotic tolerance/persister (AT/P) cell formation, meropenem, CFU plating; type: cell-based, P. aeruginosa; settings: 50 μM compound
# Method: Wild type (PA14) P. aeruginosa was grown in liquid culture with or without Compound 54 and treated with meropenem according to published procedures (see e.g., Starkey et al, PLoS Pathog. 2014, 10:e1004321). Data are expressed as fraction of original culture surviving antibiotic treatment.
# AT/P efficacy of compounds using CFU plating was assessed by growning over-night, cultures diluted 1:100 in triplicate in fresh LB medium in the presence or absence of inhibitor, and re-grown to an OD600 of 2.0 while shaking under aeration at 37° C. Before the antibiotic treatment, aliquots were plated to obtain reference colony counts. […] At 24-h and 48-h time points, the number of surviving bacteria were assessed by plating. The survival fraction of AT/P cells was calculated by dividing the number of surviving bacteria by the number of live bacteria that were present before the antibiotic treatment (reference datum) and expressed as a mean (±SD) of at least three replicate experiments. Using the same CFU plating assay, the efficacy of all compounds identified will be tested against additional antibiotic classes: b-lactams (ceftazidime, cefepime and imipenem), quinolones (ciprofloxacin, moxifloxacin, and levofloxacin), and aminoglycosides (gentamicin and tobramycicn).
# [5] = Pharmacokinetics in mouse plasma and lung after single subcutaneous injection; type: in vivo, mice; settings: for stability in vivo (serum concentration): 10 mg/kg subcutaneous, over 24 h
# Method: FIGS. 1F-1G show pharmacokinetics measured in mouse plasma (FIG. 1F) and lung (FIG. 1G) following a single subcutaneous injection of Compounds 53, 54, or 72 at 10 mg/kg.
# [6] = test system: PA14; assay: Acute mouse lung infection model (PA14); type: in vivo, mice
# [7] = test system: PA14; assay: Mouse thigh infection model (PA14); type: in vivo, mice; settings: 10 mg/kg SC; CFUs 24 h post-infection
# Method: Mice were infected with 5×10^5 and 5×10^6 PA14 cells for the thigh and lung infection model respectively. FIGS. 5A-5C: Thigh model: treatment was initiated […] and repeated at 4, 8, 12 and 18 hours. FIG. 5A: monotherapy with Compound 72, 10 mg/kg (P<0.05 Mann Whitney test); FIG. 5B-5C. Combinatorial: Compound 72 (10 mg/kg) plus Ciprofloxacin 1 mg/kg (subtherapeutic dose) (FIG. 5B: P<0.05; Figure C: P>0.05; Mann Whitney test). CFUs were assessed 24 h post-infection in the thigh (FIG. 5A), liver (FIG. 5B) and spleen (FIG. 5C). Compound 72 was administered subcutaneously and ciprofloxacin intraperitoneally (IP). […] Mice were infected with 5×10^6 PA14 cells lung infection model. Compound 54 (10 mg/kg) plus ciprofloxacin 1 mg/kg treatment (subtherapeutic dose) was initiated at 2 h post-infection and repeated at 6, 12, and 18 h post-infection. CFUs were assessed 24 h post-infection in the lung. Compound 54 was administered subcutaneously and ciprofloxacin intraperitoneally (IP).
# Thigh infection studies were performed using Compounds 54 and 72.
# [8] = test system: Caco2 intestinal epithelial cells; assay: Survival of Caco2 cells after compound exposure; type: cell-based; settings: 25 μM, 3 hours exposure
smiles,measurement,setting,value
N#Cc1ccc(NC(=O)CC(=O)Nc2ccc(Br)cc2)cc1 [Compound 54],IC50,[1]; read-out: IC50 pyocyanin (μM),1.8 µM
same,activity at 1 µM,"[1]; read-out: pyocyanin @1 uM (%), compound at 1 uM",60.8%
same,activity at 10 µM,"[1]; read-out: pyocyanin @10 uM (%), compound at 10 uM",5.9%
same,activity at 50 µM,"[1]; read-out: pyocyanin @50 uM (%), compound at 50 uM",5.7%
same,IC50,"[2]; PA14, read-out: IC50 2-AA (μM)",4.7 µM
same,IC50,"[2]; PA14, read-out: IC50 DHQ (μM)",10.1 µM
same,IC50,"[2]; PA14, read-out: IC50 HHQ (μM)",11.2 µM
same,IC50,"[2]; PA14, read-out: IC50 PQS (μM)",7.8 µM
same,activity at 50 µM,[2]; read-out: 2-AA @50 uM,5.63%
same,activity at 50 µM,[2]; read-out: AA @50 uM,701%
same,activity at 50 µM,[2]; read-out: DHQ @50 uM,10.6%
same,activity at 50 µM,[2]; read-out: HHQ @50 uM (%),1.76%
same,activity at 50 µM,[2]; read-out: HQNO @50 uM (%),12.5%
same,IC50,[2]; read-out: IC50 AA (increase; μM),11.3 µM
same,IC50,[2]; read-out: IC50 HQNO (μM),8.7 µM
same,activity at 50 µM,[2]; read-out: PQS @50 uM (%),7.4%
same,reduction of hydroxy-2-alkylquinoline (HAQ) and 2-AA production,[2]; liquid culture grown with 50 µM Compound 54 (FIG. 1C),5 to 10 fold
same,binding to MvfR (in words),[3]; FIG. 1B,high affinity
same,Signal Intensity Rmax,[3]; SPR,28.21
same,binding intensity relative to parent Compound 1,[3]; SPR,40 times
same,Kd,"[3]; Steady State Binding Affinity KD (μM), SPR, steady state",0.275 µM
same,Kd,"[3]; Steady State Binding Affinity KD [M], SPR, steady state",0.275 µM
same,Kd,"[3]; mean KD value, SPR, mean over the compounds named",~0.25 µM and 0.25 µM
same,inhibition of persistence,[4],inhibit persistence
same,stability in vivo (serum concentration),[5],stable in vivo
same,stability in vivo (serum concentration),[5]; listed as D42,highly stable in vivo
same,pharmacokinetics (in words),"[5]; mouse, in vivo",promising pharmacokinetics
same,potentiation of ciprofloxacin in reducing PA cells in mice lungs,"[6]; 10 mg/kg compound SC plus ciprofloxacin 1 mg/kg IP, CFUs 24 h post-infection",potentiates ciprofloxacin efficacy
same,recoverable CFUs from infected lungs,"[6]; preliminary, intranasal infection, 10 mg/kg compound vs vehicle",reduces the recoverable CFUs from infected lungs
same,bacterial CFUs at the site of infection,[7],reduced bacterial CFUs
same,toxicity to Caco2 (survival),[8],not toxic
